Source: US4424211A, “2'Deoxy-5-(2-halogenovinyl)-uridines, pharmaceutical compositions and method of use” (Rega Instituut VZW, priority 1981, dated 1984)
Converted amounts (≈) assume the structure as drawn. “Also recorded” adds a separate entry of the source. Read-outs that look alike come from different tables or passages of the source.

What was measured:
vaccinia virus = assay: microbe, parasite or virus in culture; format: cell-based; settings: Orthopoxvirus vaccinia, 72 h
herpes simplex-1 = assay: Antiviral index in PRK cell cultures: antimetabolic ID50 divided by antiviral ID50 (Test 4); format: cell-based, herpes simplex-1 virus; settings: for Antiviral index: PRK cells, ID50 cell number / ID50 CPE of herpes simplex-1; for antiviral index (in words): against herpes simplex virus
Protocol: Finally, the antiviral index of 5-(2-bromovinyl)-2'-deoxyuridine and its related compounds in PRK cell cultures was determined as a result of the measurements made in the foregoing tests.
The antiviral index was calculated by dividing the "antimetabolic" ID50 by the "antiviral" ID50. The "antimetabolic" ID50 corresponded to the dose required to reduce the cell number by 50% whereas the "antiviral" ID50 corresponded to the dose required to inhibit the cytopathic effect of herpes simplex-1 by 50%.

[1] = Antimetabolic activity: inhibition of (methyl-^3 H)TdR incorporation into DNA of PRK cells (Test 3a); format: cell-based; settings: rabbit
Protocol: (§1) (a) In a first experiment, the incorporation of certain radiolabelled DNA precursors into DNA of the cells, and the effect of 5-(2-bromovinyl)-2'-deoxyuridine and related compounds thereon, was tested. The technique has been described by De Clercq et al in Biochemical Pharmacology, 26, 794-797 (1977) and by De Clercq et al in Molecular Pharmacology, in press, 1978, which are incorporated herein by way of reference.
(§2) The DNA precursors as used were (methyl-^3 H) (2'-deoxythymidine) (TdR), and (2-^14 C) (2'-deoxyuridine) (UdR).
(§3) Incorporation of the radiolabelled precursor was then measured as described and the ID50 was determined.

[2] = Antimetabolic activity: inhibition of (2-^14 C)UdR incorporation into DNA of PRK cells (Test 3a); format: cell-based; settings: rabbit
Protocol: as §1, §2, §3

in vitro = settings: rabbit, prk cells
[3] = system: herpes simplex-1 (strain KOS) virus; assay: microbe, parasite or virus in culture; format: cell-based, herpes simplex-1 virus (strain KOS); settings: for IC50: 72 h, 100 CCID50, CPE, generally 3 days, average of three experiments; for selectivity of antiviral activity (in words): herpes simplex virus
[4] = Antimetabolic activity: reduction of total cell number of PRK cells (Test 3b); settings: rabbit
cell culture [5] = assay: Toxicity in cell culture (summary statement)
[6] = system: DNA viruses such as vaccinia and herpes simplex; settings: state of the art; cited from earlier work
[7] = state of the art; cited from earlier work
cell culture [8] = system: cell culture
[9] = HSF, read-out: ID50 Vaccinia (HSF)
[10] = PRK, in Oryctolagus cuniculus, read-out: ID50 Vaccinia (PRK)
[11] = human skin fibroblast (HSF) cells, read-out: ID50 Herpes simplex-1 strain KOS (HSF)
[12] = primary rabbit kidney (PRK) cells, read-out: ID50 Herpes simplex-1 strain KOS (PRK)
[13] = PRK cells, 16 hours, read-out: ID50 (methyl-^3 H)TdR incorporation into DNA
[14] = PRK cells, 16 hours, read-out: ID50 (2-^14)UdR incorpor. into DNA

Row | Structure (SMILES) | IC50 (vaccinia virus; [9]) | IC50 (vaccinia virus; [10]) | Antiviral index (herpes simplex-1) | IC50 at 16 h ([1]; prk cells) | IC50 at 16 h ([2]; prk cells) | CC50 at 72 h (in vitro) | IC50 [3, 11] | IC50 [3, 12] | antiviral index (in words) (herpes simplex-1) | CC50 at 72 h [4] | IC50 at 16 h [1, 13] | IC50 at 16 h [2, 14] | toxicity (in words) (cell culture [5]) | selectivity of antiviral activity (in words) [3] | antiviral activity/specificity of known compounds (in words) [6] | toxicity of known compounds (in words) [7] | toxicity (in words) (cell culture [8])
1 | C=C(Cl)c1cn([C@H]2C[C@H](O)[C@@H](CO)O2)c(=O)[nH]c1=O [5-(1-chlorovinyl)-2'-deoxyuridine] | 0.7 µg/mL (≈ 2.42 µM) | 0.4 µg/mL (≈ 1.39 µM) | 5 | 27 µg/mL (≈ 93.5 µM) | < 6 µg/mL | 2 µg/mL (≈ 6.93 µM) | 2 µg/mL (≈ 6.93 µM) | 0.4 µg/mL (≈ 1.39 µM) | – | – | – | – | – | – | – | – | –
2 | O=c1[nH]c(=O)n([C@H]2C[C@H](O)[C@@H](CO)O2)cc1/C=C/Br [E-5-(2-bromovinyl)-2'-deoxyuridine] | 0.7 µg/mL (≈ 2.1 µM) | 7 µg/mL (≈ 21 µM) | > 5000 | – | – | – | 0.007 µg/mL (≈ 0.021 µM) | 0.007 µg/mL (≈ 0.021 µM) | remarkably high antiviral index | > 33 µg/mL | 70 µg/mL (≈ 210 µM) | 35 µg/mL (≈ 105 µM) | remarkably low | specific antiviral activity; also recorded: very selective towards herpes simplex virus | – | – | –
3 | O=c1[nH]c(=O)n([C@H]2C[C@H](O)[C@@H](CO)O2)cc1I [2'-deoxy-5-iodouridine] | 0.2 µg/mL (≈ 0.565 µM) | 0.2 µg/mL (≈ 0.565 µM) | 30 | 2.5 µg/mL (≈ 7.06 µM) | 1.2 µg/mL (≈ 3.39 µM) | 6 µg/mL (≈ 16.9 µM) | 0.7 µg/mL (≈ 1.98 µM) | 0.2 µg/mL (≈ 0.565 µM) | – | – | – | – | – | – | act equally well against different DNA viruses such as vaccinia and herpes simplex | cannot be neglected | –
4 | C=Cc1cn([C@H]2C[C@H](O)[C@@H](CO)O2)c(=O)[nH]c1=O [2'-deoxy-5-vinyluridine] | 0.1 µg/mL (≈ 0.393 µM) | 0.4 µg/mL (≈ 1.57 µM) | 200 | 20 µg/mL (≈ 78.7 µM) | 8 µg/mL (≈ 31.5 µM) | 8 µg/mL (≈ 31.5 µM) | 0.07 µg/mL (≈ 0.275 µM) | 0.04 µg/mL (≈ 0.157 µM) | – | – | – | – | – | – | act equally well against different DNA viruses such as vaccinia and herpes simplex | cannot be neglected | –
5 | C#Cc1cn([C@H]2C[C@H](O)[C@@H](CO)O2)c(=O)[nH]c1=O [2'-deoxy-5-ethynyluridine] | 0.1 µg/mL (≈ 0.396 µM) | 0.2 µg/mL (≈ 0.793 µM) | 5 | – | – | – | 0.4 µg/mL (≈ 1.59 µM) | 0.07 µg/mL (≈ 0.278 µM) | – | 0.3 µg/mL (≈ 1.19 µM) | 100 µg/mL (≈ 396 µM) | < 6 µg/mL | – | – | – | – | –
6 | O=c1[nH]c(=O)n([C@H]2C[C@H](O)[C@@H](CO)O2)cc1/C=C/I [E-5-(2-iodovinyl)-2'-deoxyuridine] | – | 10 µg/mL (≈ 26.3 µM) | – | – | – | – | – | 0.01 µg/mL (≈ 0.0263 µM) | high antiviral index | – | – | – | – | specific antiviral activity; also recorded: very selective towards herpes simplex virus | – | – | remarkably low
